The source of these data is PMC7904827 (Scientific Reports, 2021).

Structures can show the parent of a compound that is named as a salt.

The nature of series [1]: Process stability in untreated plasma. The conditions noted are these: within 10 min. It is filed as in vitro ADME, rabbit. The protocol: Linearity was tested within the concentration range of 0.2 – 100 μM for all compounds in DMEM, the buffer and plasma and 10-100 pmol/106cells in NVCMs (method I). For method II, the concentration ranges 0.01-15 μM and 0.01-1 μM were used for determination of ICRF-193 and ICRF-193met in plasma, respectively. Unweighted and weighted (1/x and 1/x2) linear regression was applied to obtain the best fitting calibration model. […]
(§1) Stability of the analytes was examined at low and high concentrations. Process s tability (n=3) in plasma was tested for 20 min at either laboratory temperature (23 °C) or on ice (4 °C, only for GK-667). Post-preparation stability was examined for 8 to 10 h in an autosampler (8 °C, n=3) for all treated matrices. […]

Series [2] in a line: Incubation in DMEM in an incubator (5% CO2, 37 °C) without cells. It is filed as in vitro ADME. The note with it: 100 µM. The method, then:
Herein, incubations were performed in DMEM (100 μM) in a CelCulture Incubator (5% CO2, 37 °C, ESCO, USA) to mimic the conditions of the in vitro cytoprotective assay, and the results were compared to those from the saline buffer (116 mM NaCl, 5.3 mM KCl, 1.2 mM MgSO4, 1 mM CaCl2, 1.13 mM NaH2PO4, 5 mM glucose, and 20 mM HEPES, pH = 7.4).
From all of the above described experiments, samples were taken at predefined intervals, treated and immediately analyzed. All experiments were performed in four replicates, and the results are expressed as the mean ± SD.

Series [3] is described as follows: Approximate solubility in distilled water at room temperature. The note with it: distilled water, room temperature. In kind it is physicochemical. The method, then:
The syntheses of the target prodrugs were performed according to a known three-step procedure with some modifications. Target prodrugs GK-667, GK-678 and GK-691 were obtained in 34%, 37% and 17% overall yields, respectively. […] The resulting solutions remained physically stable for at least two hours at room temperature.

The nature of series [4]: Post-preparation stability of the extracted analytes in autosampler (8 °C). In kind it is physicochemical. The method, then:
Linearity was tested within the concentration range of 0.2 – 100 μM for all compounds in DMEM, the buffer and plasma and 10-100 pmol/106cells in NVCMs (method I). For […]
Unweighted and weighted (1/x and 1/x2) linear regression was applied to obtain the best fitting calibration model.
Accuracy and precision were calculated at 4 levels (LLOQ, low, medium and high concentrations). Five quality control (QC) samples were used for all concentration levels. […]
as §1
plasma was tested at -80 °C and the freezing cycle was repeated twice (n=3). The buffer, DMEM, NVCMs and plasma samples containing GK -667 from in vitro studies and from first intervals of pharmacokinetic study (up to 20 min) w ere treated and analyzed immediately after […]

Series [5] deals with neonatal ventricular cardiomyocytes (NVCMs). As to the kind of experiment: In vitro cardioprotection bioassay against daunorubicin toxicity (LDH release). It is filed as cell-based, rat. The note with it: 3 h preincubation, DAU 1.2 µM, LDH release after 48 h. The protocol:
NVCMs were isolated in-house from 1- to 3-day-old Wistar rats as described previously. The use of animals and experimental protocols were approved by Charles University, Faculty of Pharmacy Animal Welfare Committee. All experiments were performed in accordance with Directive 2010/63/EU on the Protection of Animals Used for Scientific Purposes and in compliance with Animal Research: Reporting of In Vivo Experiments (ARRIVE) guidelines. Newly isolated cardiomyocytes were left for 40 h to form a monolayer of spontaneously beating cardiomyocytes in seeding medium (DMEM/F12 supplemented with 10% HS, 5% FBS, 4% PYR and 1% P/S), which was then replaced with culture medium (DMEM/F12 supplemented with 5% FBS, 4% PYR and 1% P/S). The medium was replaced again after 24 h for new culture medium.
After 3 h, DAU solution (1.2 µM) was added to the media. After another 3 h, the medium was replaced with new (drug-free) exposure medium, and the cardiomyocytes were then kept until the end of the experiment. In addition to cytoprotective properties, the toxicity of the studied agent was also examined; this experiment was performed as described above with only the DAU addition step omitted.
Forty-five hours after the last medium exchange, a sample of medium was taken from each well to assess lactate dehydrogenase (LDH) activity[27]–[29]. For details, see the Supplementary material.
1.5 LDH activity evaluation
The control wells were treated with lysis buffer (0.1 M potassium phosphate, 1% Triton
X-100, 1 mM DTT, 2 mM EDTA; pH 7.8; 15 min; room temperature) to measure the total
cellular LDH level (sum of the activity in the control medium and the lysate). The activity of
LDH was assayed in Tris-HCl buffer (pH 8.9) containing 35 mM sodium lactate and 5 mM
NAD+. The rate of NAD+ reduction was monitored spectrophotometrically at 340 nm for 2 min.
The slope of the linear region and molar absorption coefficient e = 6.22*10 3 M/cm were used
to calculate the LDH activity, and the data were expressed as a percentage of total L DH activity. […]

The nature of series [6]: Solubility and stability of the GK-667 dosing solution in saline. It is filed as physicochemical. The protocol:
This dose of the prodrug was easily soluble in a commercially available saline solution (sodium chloride 0.9%, B-Braun, Germany) at a concentration of 5 mg/mL, which is convenient for administration to rabbits as an experimental animal model and could also be used for future pharmacodynamics experiments.
GK-667 was freshly dissolved in saline (5 mg/mL) before each administration. New Zealand White male rabbits (n = 6, ∼3.8 kg) received GK-667 (5 mg/kg) administered as a single slow (2 min) intravenous dose bolus to the ear marginal vein. Blood (∼1 mL) was sampled from veins on the contralateral ear at selected time points after drug administration (5 min to 9 h) into BD Vacutainers (BD Biosciences, Plymouth, UK) containing lithium heparin. Collected blood samples were immediately centrifuged (2 min, 3000 rpm, 4 °C), and plasma samples were harvested directly.

In the case of `C[C@H]([C@H](C)N1CC(=O)N(COC(=O)CN)C(=O)C1)N1CC(=O)N(COC(=O)CN)C(=O)C1` [GK-667, meso-2,3-bis(4-(2-aminoacetoxymethyl)-3,5-dioxopiperazin-1-yl)butane tetrahydrochloride], the results for the GK-667 decomposed in series [1] (plasma samples at room temperature (23 °C)) and in series [1] (plasma samples on ice) were about 50% and “less than 6%”, respectively. Besides, the “degradation in DMEM without cells” value in series [2] is reported as “rapidly degraded”. In addition, the solubility in series [3] is about 20 mg/mL; in series [6] (saline (sodium chloride 0.9%)), at least 5 mg/mL. Also, the “percentage of initial concentration in autosampler” value in series [4] (extracted DMEM, 100 µM, 0 h) came to 100.1%; in series [4] (extracted DMEM, 100 µM, 8 h) it was 92.2%; in series [4] (extracted DMEM, 100 µM, 10 h) it was 90.2%; in series [4] (extracted NVCMs, 100 pmol/106 cells, 0 h), 103.3%; in series [4] (extracted NVCMs, 100 pmol/106 cells, 8 h) it was 105.2%; in series [4] (extracted NVCMs, 100 pmol/106 cells, 10 h), 103.3%. Moreover, the “percentage of initial concentration in autosampler” value in series [4] (extracted buffer, 100 µM, 0 h) stood at 99.5%; in series [4] (extracted buffer, 100 µM, 8 h), 92.9%; in series [4] (extracted buffer, 100 µM, 10 h), 92.8%; in series [4] (extracted plasma, 100 µM, 0 h), 101.5%; in series [4] (extracted plasma, 100 µM, 8 h) it was 102.1%; in series [4] (extracted plasma, 100 µM, 10 h), 102.7%. In addition, the “lowest concentration with significant protection against DAU-induced toxicity” value in series [5] is listed as “matched the results of ICRF-193”. In addition, the “time the saline solution stays physically and chemically stable” value in series [6] (5 mg/mL in saline, 20 °C) is listed as “at least 1 h”. The “GK-667 concentration remaining in saline solution” value in series [6] (5 mg/mL in saline, 20 °C, 1 h) is reported as ≥ 95 % of the initial amount.
